Experimental data taken from ChEMBL document CHEMBL3046513, “Synthesis, characterization, and biological evaluation of some N-aryl hydrazones and their 2,3-disubstituted-4-thiazolidinone derivatives” (Med Chem Res, 2013).
≈ marks a conversion by molar mass, not a printed value. Calls of active or inactive are those of the source. The calls are words filed in the database; no cut-off is given here.

Tests used:
Mus musculus [1] = test: Analgesic activity in Mus musculus […] albino (mouse) assessed as time taken to tail withdrawl at 100 mg/kg, po administered through intragastric tube after 120 min by tail flick test (reference value: 1.363 +/- 0.1297 secs); assay type: functional
Rattus norvegicus [2] = test: Anti-inflammatory activity in Rattus norvegicus (rat) assessed as decrease in carrageenan-induced paw edema at 100 mg/kg, po administered 30 min prior to carrageenan challenge measured after 60 min (reference value: 2.175 +/- 0.1797 mm); assay type: functional
Staphylococcus aureus = test: Antibacterial activity against Staphylococcus aureus ATCC 25923 assessed as growth inhibition by serial plate dilution method; assay type: functional
Escherichia coli = test: Antibacterial activity against Escherichia coli ATCC 25922 assessed as growth inhibition by serial plate dilution method; assay type: functional
Rattus norvegicus [3] = test: Anti-inflammatory activity in Rattus norvegicus (rat) assessed as decrease in carrageenan-induced paw edema at 100 mg/kg, po administered 30 min prior to carrageenan challenge measured after 180 min (reference value: 2.275 +/- 0.1181 mm); assay type: functional
Bacillus cereus = test: Antibacterial activity against Bacillus cereus assessed as growth inhibition by serial plate dilution method; assay type: functional
Rattus norvegicus [4] = test: Anti-inflammatory activity in Rattus norvegicus (rat) assessed as decrease in carrageenan-induced paw edema at 100 mg/kg, po administered 30 min prior to carrageenan challenge measured after 120 min (reference value: 2.375 +/- 0.1436 mm); assay type: functional
Mus musculus [5] = test: Analgesic activity in Mus musculus […] albino (mouse) assessed as time taken to tail withdrawl at 100 mg/kg, po administered through intragastric tube after 180 min by tail flick test (reference value: 1.363 +/- 0.1297 secs); assay type: functional
Mus musculus [6] = test: Analgesic activity in Mus musculus […] albino (mouse) assessed as time taken to tail withdrawl at 100 mg/kg, po administered through intragastric tube after 60 min by tail flick test (reference value: 1.363 +/- 0.1297 secs); assay type: functional
Candida albicans [7] = test: Antifungal activity against Candida albicans assessed as growth inhibition by serial plate dilution method; assay type: functional
Pseudomonas aeruginosa = test: Antibacterial activity against Pseudomonas aeruginosa ATCC 27853 assessed as growth inhibition by serial plate dilution method; assay type: functional
[8] = test system: Radical scavenging activity; test: Antioxidant activity assessed as inhibition of DPPH radical generation at 200 to 800 ug/mL after 20 min by spectrophotometric analysis; assay type: functional
Mus musculus [9] = test: Acute toxicity in Mus musculus Swiss albino (mouse) assessed as mortality at 500 to 2500 mg/kg, po after 4 to 24 hr; assay type: organism-based; set-up: route oral; conditions: in vivo
Candida albicans [10] = test: Ratio of fluconazole MIC to compound MIC for Candida albicans; assay type: functional
Mus musculus [11] = test: Acute toxicity in Mus musculus Swiss albino (mouse) assessed as behavioral changes at 500 to 2500 mg/kg, po after 4 to 24 hr; assay type: organism-based; set-up: route oral; conditions: in vivo
[12] = test system: Radical scavenging activity; test: Antioxidant activity assessed as inhibition of DPPH radical generation at 400 ug/mL after 20 min by spectrophotometric analysis relative to control; assay type: functional
[13] = test system: Radical scavenging activity; test: Antioxidant activity assessed as inhibition of DPPH radical generation at 200 ug/mL after 20 min by spectrophotometric analysis relative to control; assay type: functional
[14] = test system: Radical scavenging activity; test: Antioxidant activity assessed as inhibition of DPPH radical generation at 800 ug/mL after 20 min by spectrophotometric analysis relative to control; assay type: functional

SMILES | Time (Mus musculus [1]) [s] | Activity (Rattus norvegicus [2]) [mm] | MIC (Staphylococcus aureus) [µg/mL] | MIC (Escherichia coli) [µg/mL] | Activity (Rattus norvegicus [3]) [mm] | MIC (Bacillus cereus) [µg/mL] | Activity (Rattus norvegicus [4]) [mm] | Time (Mus musculus [5]) [s] | Time (Mus musculus [6]) [s] | MIC (Candida albicans [7]) [µg/mL] | MIC (Pseudomonas aeruginosa) [µg/mL] | inhibition [8] | Activity (Mus musculus [9]) | Ratio (Candida albicans [10]) | Activity (Mus musculus [11]) | inhibition [12] [%] | inhibition [13] [%] | inhibition [14] [%]
COc1ccc(Br)c(C(=O)NN2C(=O)CSC2c2ccccc2OC)c1 (configuration not stated) | 2.075 | 1.825 | 6.25 (≈ 14.3 µM) | 12.5 (≈ 28.6 µM) | 2.075 | 6.25 (≈ 14.3 µM) | 1.95 | 2.238 | 2.175 | 6.25 (≈ 14.3 µM) | 6.25 (≈ 14.3 µM) | inactive |  |  |  |  |  | 
COc1ccc(Br)c(C(=O)NN2C(=O)CSC2c2ccc(C)cc2)c1 (configuration not stated) | 2.088 | 1.525 | 6.25 (≈ 14.8 µM) | 12.5 (≈ 29.7 µM) | 1.95 | 12.5 (≈ 29.7 µM) | 1.9 | 2.225 | 2.038 | 6.25 (≈ 14.8 µM) | 12.5 (≈ 29.7 µM) | inactive |  |  |  |  |  | 
COc1ccc(Br)c(C(=O)NN2C(=O)CSC2c2ccccc2O)c1 (configuration not stated) | 3.623 | 1.88 | 6.25 (≈ 14.8 µM) | 12.5 (≈ 29.5 µM) | 2.081 | 12.5 (≈ 29.5 µM) | 1.98 | 2.235 | 3.546 | 3.12 (≈ 7.38 µM) | 6.25 (≈ 14.8 µM) | inactive |  |  |  |  |  | 
COc1ccc(Br)c(C(=O)N/N=C\c2ccccc2)c1 |  |  | 12.5 (≈ 37.5 µM) | 12.5 (≈ 37.5 µM) |  | 12.5 (≈ 37.5 µM) |  |  |  | 1.56 (≈ 4.69 µM) | 12.5 (≈ 37.5 µM) |  | Non-toxic | 5 | Non-toxic |  |  | 
COc1ccc(Br)c(C(=O)NN2C(=O)CSC2c2cccc(Cl)c2)c1 (configuration not stated) | 2.8 | 1.575 | 12.5 (≈ 28.3 µM) | 12.5 (≈ 28.3 µM) | 1.6 | 6.25 (≈ 14.1 µM) | 1.65 | 2.438 | 2.825 | 1.56 (≈ 3.54 µM) | 6.25 (≈ 14.1 µM) |  | Non-toxic | 5 | Non-toxic | 58.5 | 57.6 | 59.5
COc1ccc(Br)c(C(=O)NN2C(=O)CSC2c2cccc3cc(OC)ccc23)c1 (configuration not stated) | 2.214 | 1.515 | 12.5 (≈ 25.6 µM) | 6.25 (≈ 12.8 µM) | 1.98 | 12.5 (≈ 25.6 µM) | 1.89 | 2.53 | 1.954 | 6.25 (≈ 12.8 µM) | 6.25 (≈ 12.8 µM) |  |  |  |  | 52.4 | 38.3 | 58.3
COc1ccc(Br)c(C(=O)NN2C(=O)CSC2c2ccc(O)c(OC)c2)c1 (configuration not stated) | 3.334 | 1.528 | 6.25 (≈ 13.8 µM) | 12.5 (≈ 27.6 µM) | 1.78 | 6.25 (≈ 13.8 µM) | 1.77 | 2.841 | 3.468 | 12.5 (≈ 27.6 µM) | 6.25 (≈ 13.8 µM) | inactive |  |  |  |  |  | 
